From patent US12209079B2 (GENERAL INCORPORATED ASSOCIATION PHARMA VALLEY PROJECT …, priority 2017, dated 2025)
Structures can show the parent of a compound that is named as a salt.

Tests used:
IDO in A431 cells = target: T1, IDO in A431 cells (Homo sapiens, UniProt P14902); assay: IDO cell-based assay, kynurenine production in IFN-γ stimulated A431 cells; conditions: A-431, 24 h; final concentration of the compound 10 μM; rate relative to culture without compound
T1 construct: endogenous in cells; host or cells: A431 cells, IFN-γ stimulated
In short: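 A431 cells were cultured 24 h, then preincubated 1 h with compound in medium containing 178 μM L-tryptophan, and stimulated with IFN-γ (diluted to 100 ng/mL before addition) for 24 h. Kynurenine was measured by p-dimethylbenzaldehyde absorbance at 460 nm, background-subtracted, and expressed as % production versus no-compound control.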

[1] = target: rhIDO (recombinant human IDO) (Homo sapiens, UniProt P14902); assay: Enzyme assay using rhIDO (rate of kynurenine production); type: biochemical; conditions: 2 h; final concentration of the compound 10 μM; rate relative to reaction without compound; read-out: rhIDO-mediated kynurenine production
In short: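 rhIDO preincubated with compound 10 min at 37 °C in phosphate buffer with ascorbate, methylene blue and catalase; started with 2 mM tryptophan solution (stock) and run 120 min at 37 °C. Stopped with TCA and heated to convert N-formylkynurenine; kynurenine read at 490 nm after p-dimethylbenzaldehyde, background-subtracted, as % of no-compound control.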

[2] = target: rhTDO (recombinant human TDO) (Homo sapiens, UniProt P48775); assay: Enzyme assay using rhTDO (rate of kynurenine production); type: biochemical; conditions: 2 h; final concentration of the compound 10 μM; rate relative to reaction without compound; read-out: rhTDO-mediated kynurenine production
In short: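 Kynurenine output, as percent of untreated control after background subtraction, read at 490 nm with p-dimethylbenzaldehyde following TCA quench and 15 min heating at 50 °C. Reaction: rhTDO with compound, 10 min preincubation then 120 min at 37 °C, started by 20 mM tryptophan stock, in phosphate/ascorbate/methylene blue/catalase.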

TDO in A172 cells = target: T2, TDO in A172 cells (Homo sapiens, UniProt P48775); assay: TDO cell-based assay, kynurenine production in A172 cells; conditions: A 172; final concentration of the compound 10 μM; rate relative to culture without compound
T2 construct: endogenous in cells; host or cells: A172 cells
In short: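 A172 cells were preincubated with compound for 1 h, then given L-tryptophan (final 524 μM) for 24 h at 37 °C. Kynurenine was read at 460 nm after p-dimethylbenzaldehyde/TCA reagent, background-subtracted, and expressed as % of no-compound production.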

Chain of rhTDO (recombinant human TDO) (P48775 whole entry): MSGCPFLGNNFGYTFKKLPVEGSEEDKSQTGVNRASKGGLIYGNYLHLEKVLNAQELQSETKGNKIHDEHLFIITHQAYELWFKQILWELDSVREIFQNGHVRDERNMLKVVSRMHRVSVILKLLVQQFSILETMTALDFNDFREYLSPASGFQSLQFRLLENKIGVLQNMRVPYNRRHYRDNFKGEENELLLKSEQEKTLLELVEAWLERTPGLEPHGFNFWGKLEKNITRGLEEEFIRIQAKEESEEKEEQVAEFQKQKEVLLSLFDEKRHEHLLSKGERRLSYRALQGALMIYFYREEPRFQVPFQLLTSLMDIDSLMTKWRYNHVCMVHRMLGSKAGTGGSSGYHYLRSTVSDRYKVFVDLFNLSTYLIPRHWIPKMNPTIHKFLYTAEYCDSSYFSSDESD
T2 sequence (P48775 whole entry): as above
Chain of rhIDO (recombinant human IDO) (P14902 whole entry): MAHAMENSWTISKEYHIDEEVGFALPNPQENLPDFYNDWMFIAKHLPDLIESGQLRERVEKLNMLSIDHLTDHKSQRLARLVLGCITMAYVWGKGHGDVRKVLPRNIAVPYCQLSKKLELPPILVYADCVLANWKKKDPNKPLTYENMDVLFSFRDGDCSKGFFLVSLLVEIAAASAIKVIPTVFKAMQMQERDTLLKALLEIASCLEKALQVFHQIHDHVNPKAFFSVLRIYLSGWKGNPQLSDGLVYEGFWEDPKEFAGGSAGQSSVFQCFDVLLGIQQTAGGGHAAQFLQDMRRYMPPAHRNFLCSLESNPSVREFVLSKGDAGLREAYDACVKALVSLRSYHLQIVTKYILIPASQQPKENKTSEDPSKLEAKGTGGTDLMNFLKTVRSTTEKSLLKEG
T1 sequence (P14902 whole entry): as above

SMILES	remaining activity at 10 µM (IDO in A431 cells)	remaining activity at 10 µM [1]	remaining activity at 10 µM [2]	remaining activity at 10 µM (TDO in A172 cells)
N#Cc1ccc(CNC(=O)c2ccccc2C[Se]C(=N)N)cc1 [Compound 104, 2-((4-Cyanobenzyl)carbamoyl)benzyl carbamimidoselenoate hydrobromide]	-4%	78%	81%	-1%
COc1cccc(CNC(=O)c2ccc(Br)cc2CSC(=N)N)c1 [Compound 105, 5-Bromo-2-((3-methoxybenzyl)carbamoyl)benzyl carbamimidothioate hydrobromide]	107%	98%	68%	42%
COc1cccc(CNC(=O)c2ccc(Br)cc2C[Se]C(=N)N)c1 [Compound 106, 5-Bromo-2-((3-methoxybenzyl)carbamoyl)benzyl carbamimidoselenoate hydrobromide]	64%	90%	98%	48%
N=C(N)[Se]Cc1cc(Br)ccc1C(=O)NCC1CC1 [Compound 107, 5-Bromo-2-((cyclopropylmethyl)carbamoyl)benzyl carbamimidoselenoate hydrobromide]	44%	97%	103%	12%
N=C(N)[Se]Cc1ccccc1C[Se]C(=N)N [Compound 108, 1,2-Phenylenebis(methylene) dicarbamimidoselenoate dihydrobromide]	5%	51%	55%	41%
N=C(N)[Se]Cc1ccc(Cl)cc1C[Se]C(=N)N [Compound 109, (4-Chloro-1,2-phenylene)bis(methylene) dicarbamimidoselenoate dihydrobromide]	19%	61%	57%	63%
N#Cc1ccc(CNC(=O)c2cc(Br)ccc2C[Se]C(=N)N)cc1 [Compound 110, 4-Bromo-2-((4-cyanobenzyl)carbamoyl)benzyl carbamimidoselenoate hydrobromide]	13%	61%	59%	38%
N#Cc1ccc(CNC(=O)c2cccc(Br)c2CSC(=N)N)cc1 [Compound 111, 2-Bromo-6-((4-cyanobenzyl)carbamoyl)benzyl carbamimidothioate hydrobromide]	53%	17%	122%	87%
N=C(N)[Se]Cc1nc2ccccc2nc1C[Se]C(=N)N [Compound 112, Quinoxaline-2,3-diylbis(methylene) dicarbamimidoselenoate dihydrobromide]	-2%	94%	90%	5%
N#Cc1ccc(CNC(=O)c2ccc(Br)cc2C[Se]C(=N)N)cc1 [Compound 113, 5-Bromo-2-((4-cyanobenzyl)carbamoyl)benzyl carbamimidoselenoate hydrobromide]	73%	92%	58%	44%
N=C(N)SCc1cc(Br)ccc1C(=O)NCc1ccc(C(F)(F)F)cc1 [Compound 114, 5-Bromo-2-((4-(trifluoromethyl)benzyl)carbamoyl)benzyl carbamimidothioate hydrobromide]	17%	98%	36%	37%
COCCNC(=O)c1ccc(Br)cc1CSC(=N)N [Compound 115, 5-Bromo-2-((2-methoxyethyl)carbamoyl)benzyl carbamimidothioate hydrobromide]	121%	91%	63%	71%
N=C(N)SCc1cc(Br)ccc1C(=O)NCc1ccc(F)c(Cl)c1 [Compound 116, 5-Bromo-2-((3-chloro-4-fluorobenzyl)carbamoyl)benzyl carbamimidothioate hydrobromide]	92%	85%	21%	55%
N=C(N)SCc1ccc(Br)cc1C(=O)NCc1ccc(Br)cc1 [Compound 117, 4-Bromo-2-((4-bromobenzyl)carbamoyl)benzyl carbamimidothioate hydrobromide]	7%	2%	9%	31%
N#Cc1ccc(CNC(=O)c2cc(Br)ccc2CS/C(N)=N/c2ccc(F)c(Cl)c2)cc1 [Compound 118, 4-Bromo-2-((4-cyanobenzyl)carbamoyl)benzyl (E)-N′-(3-chloro-4-fluorophenyl)carbamimidothioate hydrobromide]	3%	15%	35%	20%
N#Cc1ccc(CNC(=O)c2cc(Br)ccc2CS/C(N)=N/c2ccc(Br)cc2)cc1 [Compound 119, 4-Bromo-2-((4-cyanobenzyl)carbamoyl)benzyl (E)-N′-(4-bromophenyl)carbamimidothioate hydrobromide]	4%	25%	50%	12%
Fc1ccc(CSC2=NCN(CC3CC3)CN2)c(CSC2=NCN(CC3CC3)CN2)c1 [Compound 120, 6,6′-(((4-Fluoro-1,2-phenylene)bis(methylene))bis(sulfanediyl))bis(3-(cyclopropylmethyl)-1,2,3,4-tetrahydro-1,3,5-triazine)]	14%	41%	8%	7%
Fc1ccc(CSC2=NCN(CC3CCCCC3)CN2)c(CSC2=NCN(CC3CCCCC3)CN2)c1 [Compound 121, 6,6′-(((4-Fluoro-1,2-phenylene)bis(methylene))bis(sulfanediyl))bis(3-(cyclohexylmethyl)-1,2,3,4-tetrahydro-1,3,5-triazine)]	14%	29%	7%	11%
N/C(=N\c1ccc(F)c(Cl)c1)SCc1ccccc1CS/C(N)=N/c1ccc(F)c(Cl)c1 [Compound 122, 1,2-Phenylenebis(methylene) (E,E)-bis(N-(3-chloro-4-fluorophenyl)carbamimidothioate) dihydrobromide]	2%	-3%	8%	7%
N/C(=N\c1ccc(Cl)cc1)SCc1cc(Cl)c(Cl)cc1CS/C(N)=N/c1ccc(Cl)cc1 [Compound 123, (4,5-Dichloro-1,2-phenylene)bis(methylene) (E,E)-bis(N′-(4-chlorophenyl)carbamimidothioate) dihydrobromide]	12%	-2%	10%	4%
COc1ccc(/N=C(\N)SCc2cc(Cl)c(Cl)cc2CS/C(N)=N/c2ccc(OC)cc2)cc1 [Compound 124, (4,5-Dichloro-1,2-phenylene)bis(methylene) (E,E)-bis(N′-(4-methoxyphenyl)carbamimidothioate) dihydrobromide]	10%	-1%	20%	0%
N/C(=N\c1cccc(Cl)c1)SCc1cc(Cl)c(Cl)cc1CS/C(N)=N/c1cccc(Cl)c1 [Compound 125, (4,5-Dichloro-1,2-phenylene)bis(methylene) (E,E)-bis(N′-(3-chlorophenyl)carbamimidothioate) dihydrobromide]	11%	-2%	7%	3%
N/C(=N\c1ccc(Br)cc1)SCc1ccc(F)cc1CS/C(N)=N/c1ccc(Br)cc1 [Compound 126, (4-Fluoro-1,2-phenylene)bis(methylene) (E,E)-bis(N′-(4-bromophenyl)carbamimidothioate) dihydrobromide]	13%	-1%	6%	10%
N/C(=N\c1ccc(F)cc1)SCc1ccc(F)cc1CS/C(N)=N/c1ccc(F)cc1 [Compound 127, (4-Fluoro-1,2-phenylene)bis(methylene) (E,E)-bis(N′-(4-fluorophenyl)carbamimidothioate) dihydrobromide]	8%	0%	12%	10%
